# Tested on: C57/B6 mouse embryos
# Test: Reproductive studies: maternal, fetal and gross/visceral malformation observations after treatment on GD-8 or GD-13
# Format: in vivo
# Settings: for Number of female embryos / Number of male embryos: number (percentage); for Exomphalos / Eye open / Kinky tail / Left/right kidney hypo/descended / Mandible hypoplasia / Maxilla hypoplasia / Microtia/low set microtia / Undescended testis: number of embryos (percentage); for Live fetus/litter / Resorption/litter: parentheses contain percentages; for Placental weight, IUGR −2SD: fraction (percentage); for Fetal weight, IUGR −1SD / Fetal weight, IUGR −2SD: fraction of fetuses (percentage)
# Method: Reproductive studies were conducted in adult female mice, averaging 30 gm in weight and 6 weeks in age ([Padmanabhan et al., 2006]; [Bastaki et al., 2018]). Following successful mating, indicated by vaginal plug observation, the plug-positive day was considered gestation day 0 (GD-0). DL76 was administered at various doses (7.5 mg/kg, 15 mg/kg, 30 mg/kg, and 60 mg/kg) through single i.p. injections and three 15 mg/kg injections in 1 day to mouse groups on GD-8 and GD-13 (Tables 1, 2). The control group was injected with normal saline. Appropriate formation of different organs occurs in specific periods of the development of the mouse. These two periods were selected because GD-8 is known to be a critical period for the induction of neural tube defects, craniofacial malformations, and the development of other organs, whereas on GD-13, the retina and other parts are being formed, and most other organs have been formed. The number of implantations, fetal deaths, and resorptions was recorded. Fetal and placental weights were documented separately. After blotting dry, the fetuses were weighed and fixed in 95% ethanol. The reproductive toxicological effects of DL76 were assessed by observing gross and visceral malformations, following [Sterz and Lehmann (1985)], [Abdulrazzaq et al. (1997)], [Padmanabhan et al. (2003)], and [Padmanabhan et al. (2006)].
# Deformities of the embryos were identified according to a modified method of [Sterz and Lehmann (1985)], [Abdulrazzaq et al. (1997)], and [Bass et al. (2020)]. Accordingly, the embryos were removed from the 95% ethanol, and the lower part of the abdomen was cut using a razor blade. All organs were checked for abnormalities with a stereo dissecting microscope, and finally, the organs were removed by using forceps.
# Statistical analyses employed SPSS 26.0 (IBM Middle East, Dubai, UAE). Data were presented as means ± SEM. […] Fetal abnormality data were presented as counts and percentages. Fisher’s exact test compared the percentages of abnormalities between the control group (saline) and the different dose groups. All tests were two-tailed, and significance was set at p < 0.05.
compound,measurement,setting,value
"CC(C)(C)c1ccc(OCCCN2CCCCC2)cc1 [DL76, 1-(3-(4-tert-butyl-phenoxy)propyl) piperidine]",Number of female embryos,30 mg/kg i.p. on GD-13,24 (55.8)
same,Number of male embryos,30 mg/kg i.p. on GD-13,19 (44.2)
same,Exomphalos,30 mg/kg i.p. on GD-13,1 (2.3)
same,Eye open,30 mg/kg i.p. on GD-13,0
same,Kinky tail,30 mg/kg i.p. on GD-13,0
same,Left/right kidney hypo/descended,30 mg/kg i.p. on GD-13,1 (2.3)
same,Mandible hypoplasia,30 mg/kg i.p. on GD-13,3 (7.0)
same,Maxilla hypoplasia,30 mg/kg i.p. on GD-13,2 (4.7)
same,Microtia/low set microtia,30 mg/kg i.p. on GD-13,1 (2.3)
same,Undescended testis,30 mg/kg i.p. on GD-13,0
same,Live fetus/litter,30 mg/kg i.p. on GD-13,6.143 (87.76)
same,Resorption/litter,30 mg/kg i.p. on GD-13,.857 (12.24)
same,Fetal weight/Litter (g) (Mean ± SD),60 mg/kg i.p. on GD-8,1.048 ± .0156 g
same,Fetuses/litter,60 mg/kg i.p. on GD-8,7.286 ± 1.380
same,Placental weight/Litter (g) (mean ± SD),60 mg/kg i.p. on GD-8,0.101 ± 0.010 g
same,"Placental weight, IUGR −2SD",60 mg/kg i.p. on GD-8,0
same,"Fetal weight, IUGR −1SD",60 mg/kg i.p. on GD-8,0
same,Number of female embryos,60 mg/kg i.p. on GD-8,21 (45.7)
same,Number of male embryos,60 mg/kg i.p. on GD-8,25 (54.3)
same,Exomphalos,60 mg/kg i.p. on GD-8,0
same,Eye open,60 mg/kg i.p. on GD-8,1 (2.2)
same,Kinky tail,60 mg/kg i.p. on GD-8,0
same,Left/right kidney hypo/descended,60 mg/kg i.p. on GD-8,2 (4.3)
same,Mandible hypoplasia,60 mg/kg i.p. on GD-8,4 (8.7)
same,Maxilla hypoplasia,60 mg/kg i.p. on GD-8,2 (4.3)
same,Microtia/low set microtia,60 mg/kg i.p. on GD-8,2 (4.3)
same,Undescended testis,60 mg/kg i.p. on GD-8,0
same,Live fetus/litter,60 mg/kg i.p. on GD-8,6.571 (90.20)
same,Resorption/litter,60 mg/kg i.p. on GD-8,0.714 (9.80)
same,Fetal weight Litter (g) (Mean ± SD),60 mg/kg i.p. on GD-13,1.051 ± 0.122 g
same,Fetuses/litter,60 mg/kg i.p. on GD-13,7.000 ± 1.414
same,Placental weight/Litter (g) (mean ± SD),60 mg/kg i.p. on GD-13,0.097 ± 0.010 g
same,"Fetal weight, IUGR −1SD",60 mg/kg i.p. on GD-13,0
same,"Fetal weight, IUGR −2SD",60 mg/kg i.p. on GD-13,0
same,Number of female embryos,60 mg/kg i.p. on GD-13,17 (53.1)
same,Number of male embryos,60 mg/kg i.p. on GD-13,15 (46.9)
same,Exomphalos,60 mg/kg i.p. on GD-13,0
same,Eye open,60 mg/kg i.p. on GD-13,2 (6.3)
same,Kinky tail,60 mg/kg i.p. on GD-13,0
same,Left/right kidney hypo/descended,60 mg/kg i.p. on GD-13,2 (6.3)
same,Mandible hypoplasia,60 mg/kg i.p. on GD-13,2 (6.3)
same,Maxilla hypoplasia,60 mg/kg i.p. on GD-13,2 (6.3)
same,Microtia/low set microtia,60 mg/kg i.p. on GD-13,2 (6.3)
same,Undescended testis,60 mg/kg i.p. on GD-13,2 (6.3)
same,Live fetus/litter,60 mg/kg i.p. on GD-13,5.333 (76.19)
same,Resorption/litter,60 mg/kg i.p. on GD-13,1.667 (23.81)
same,Fetal weight/Litter (g) (Mean ± SD),3 × 15-dose i.p. on GD-8,1.037 ± 0.101 g
same,Fetuses/litter,3 × 15-dose i.p. on GD-8,8.143 ± 0.690
same,Placental weight/Litter (g) (mean ± SD),3 × 15-dose i.p. on GD-8,0.092 ± 0.007 g
same,"Placental weight, IUGR −2SD",3 × 15-dose i.p. on GD-8,0
same,"Fetal weight, IUGR −2SD",3 × 15-dose i.p. on GD-8,0
same,Number of female embryos,3 × 15-dose i.p. on GD-8,24 (51.1)
same,Number of male embryos,3 × 15-dose i.p. on GD-8,23 (48.9)
same,Exomphalos,3 × 15-dose i.p. on GD-8,0
same,Eye open,3 × 15-dose i.p. on GD-8,4 (8.5)
same,Kinky tail,3 × 15-dose i.p. on GD-8,0
same,Left/right kidney hypo/descended,3 × 15-dose i.p. on GD-8,2 (4.3)
same,Mandible hypoplasia,3 × 15-dose i.p. on GD-8,3 (6.4)
same,Maxilla hypoplasia,3 × 15-dose i.p. on GD-8,2 (4.3)
same,Microtia/low set microtia,3 × 15-dose i.p. on GD-8,2 (4.3)
same,Undescended testis,3 × 15-dose i.p. on GD-8,1 (2.1)
same,Live fetus/litter,3 × 15-dose i.p. on GD-8,6.714 (82.46)
same,Resorption/litter,3 × 15-dose i.p. on GD-8,1.429 (17.54)
same,Fetal weight Litter (g) (Mean ± SD),3 × 15-dose i.p. on GD-13,1.051 ± 0.031 g
same,Fetuses/litter,3 × 15-dose i.p. on GD-13,8.286 ± 1.704
same,Placental weight/Litter (g) (mean ± SD),3 × 15-dose i.p. on GD-13,0.110 ± 0.012 g
same,"Placental weight, IUGR −2SD",3 × 15-dose i.p. on GD-13,0
same,"Fetal weight, IUGR −1SD",3 × 15-dose i.p. on GD-13,0
same,"Fetal weight, IUGR −2SD",3 × 15-dose i.p. on GD-13,0
same,Number of female embryos,3 × 15-dose i.p. on GD-13,24 (50.0)
same,Number of male embryos,3 × 15-dose i.p. on GD-13,24 (50.0)
same,Exomphalos,3 × 15-dose i.p. on GD-13,1 (2.1)
same,Eye open,3 × 15-dose i.p. on GD-13,6 (12.5)
same,Kinky tail,3 × 15-dose i.p. on GD-13,1 (2.1)
same,Left/right kidney hypo/descended,3 × 15-dose i.p. on GD-13,2 (4.2)
same,Mandible hypoplasia,3 × 15-dose i.p. on GD-13,3 (6.3)
same,Maxilla hypoplasia,3 × 15-dose i.p. on GD-13,3 (6.3)
same,Microtia/low set microtia,3 × 15-dose i.p. on GD-13,3 (6.3)
same,Undescended testis,3 × 15-dose i.p. on GD-13,0
same,Live fetus/litter,3 × 15-dose i.p. on GD-13,6.857 (82.76)
same,Resorption/litter,3 × 15-dose i.p. on GD-13,1.429 (17.24)
same,"mean fetal weight in each litter, treatment groups vs controls","GD-8 and GD-13, all doses",not significantly different
same,"mean placental weights, treated groups vs controls","GD-8 and GD-13, all doses",not significantly different
same,"number of fetuses in each litter, between all study groups","GD-8 and GD-13, all doses",not significantly different
same,"number of live fetuses, between all study groups","GD-8 and GD-13, all doses",not significantly different
same,"resorption rate, between all the groups","GD-8 and GD-13, all doses",not significantly different
same,maternal toxicity,"all groups, GD-8 and GD-13 treated animals",no sign of maternal toxicity
same,"incidence of exencephaly and craniofacial malformations, exomphalos, microtia, open eye, palate, hydronephrosis, descended kidney, undescended testis, kinky tail",between any of the groups studied,no significant difference
same,"average number of implantations and resorptions, control vs DL76-treated groups",early stages of gestation and organogenesis period,No significant alterations
same,maternal body weight vs control mice group,"single 7.5, 15, 30 or 60 mg/kg i.p. or multiple doses 3 × 15 mg/kg i.p. on GD 8 or 13",failed to affect
same,incidence of gross morphological anomalies in treated fetuses vs control group,single- and multiple-dose groups given i.p.,not significantly different
